# Where a name gives a salt, the structure may show the parent alone.
# Columns and labels:
# [1] = Determination of the solubility in 5% strength aqueous dextrose solution; type: physicochemical; conditions: saline or isotonic, thermodynamic from solid, room temperature
# Description: The test substance is suspended in 5% strength aqueous dextrose solution. This suspension is shaken at room temperature for 24 h. After ultracentrifugation at 224 000 g for 30 min, the supernatant is diluted with DMSO and analysed by HPLC. A two-point calibration plot of the test compound in DMSO is used for quantification.
# Agilent 1100 with DAD (G1315A), quat. Pump (G1311A), autosampler CTC HTS PAL, degasser (G1322A) and column thermostat (G1316A); column: Phenomenex Gemini C18, 5 μm, 50 mm×2 mm; temperature: 40° C.; eluent A: water/phosphoric acid pH 2, eluent B: acetonitrile; flow rate: 0.7 ml/min; gradient: 0-0.5 min 85% A, 15% B; ramp 0.5-3 min 10% A, 90% B; 3-3.5 min 10% A, 90% B; ramp 3.5-4 min 85% A, 15% B; 4-5 min 85% A, 15% B.
# Agilent 1100 with DAD (G1315A), quat. pump (G1311A), autosampler CTC HTS PAL, degasser (G1322A) and column thermostat (G1316A); column: VDSoptilab Kromasil 100 C18, 3.5 μm, 60 mm×2.1 mm; temperature: 30° C.; eluent A: water+5 ml of perchloric acid/liter, eluent B: acetonitrile; flow rate: 0.75 ml/min; gradient: 0-0.5 min 98% A, 2% B; ramp 0.5-4.5 min 10% A, 90% B; 4.5-6 min 10% A, 90% B; ramp 6.5-6.7 min 98% A, 2% B; 6.7-7.5 min 98% A, 2% B.
# [2] = Stability in buffer at various pH values; type: physicochemical
# Description: 0.3 mg of the test substance is weighed into a 2 ml HPLC vial and 0.5 ml of acetonitrile or acetonitrile/DMSO (9:1) is added. The substance is dissolved by putting the sample vessel in an ultrasonic bath for about 10 seconds. Then 0.5 ml of the respective buffer solution is added, and the sample is again treated in the ultrasonic bath.
# pH 2: 0.03 mol of citric acid, 0.061 mol of sodium chloride and 0.0082 mol of hydrochoric acid ad 1 liter of water;
# pH 4: 1 liter of Millipore water is adjusted to pH 4.0 with 1 N hydrochloric acid;
# pH 5: 0.096 mol of citric acid and 0.2 mol of sodium hydroxide ad 1 liter of water;
# pH 6: 0.06 mol of citric acid and 0.16 mol of sodium hydroxide ad 1 liter of water;
# pH 7.4: 90.0 g of sodium chloride, 13.61 g of potassium dihydrogen phosphate and 83.35 g of 1 N sodium hydroxide solution are made up to 1 liter with water; this solution is then further diluted 1:10 with Millipore water.
# pH 8: 0.013 mol of borax and 0.021 mol of hydrochloric acid ad 1 liter of water.
# 5 μl portions of the test solution are analyzed by HPLC for their content of unchanged test substance, and of active substance (A) formed, every hour over a period of 24 hours at 37° C. The percentage areas of the appropriate peaks are used for quantification.
# The ratios of the peak areas (F) at the respective time points in relation to the peak areas at the starting time are shown in Table 2 for representative exemplary embodiments: […]
SMILES,solubility thermodynamic at 24 h [1] [mg/mL],"% test substance after 4 h [F(t = 4 h) × 100/F(t = 0 h)] ([2]; pH 4, 37° C.) [%]","% test substance after 24 h [F(t = 24 h) × 100/F(t = 0 h)] ([2]; pH 4, 37° C.) [%]","% test substance after 4 h [F(t = 4 h) × 100/F(t = 0 h)] ([2]; pH 7.4, 37° C.) [%]","% test substance after 24 h [F(t = 24 h) × 100/F(t = 0 h)] ([2]; pH 7.4, 37° C.) [%]","% test substance after 4 h [F(t = 4 h) × 100/F(t = 0 h)] ([2]; pH 5, 37° C.) [%]","% test substance after 24 h [F(t = 24 h) × 100/F(t = 0 h)] ([2]; pH 5, 37° C.) [%]"
"C[C@H](NC(=O)[C@@H](N)CCN)C(=O)OC[C@H](COc1ccc(-c2c(C#N)c(N)nc(SCc3coc(-c4ccc(Cl)cc4)n3)c2C#N)cc1)OC(=O)[C@H](C)NC(=O)[C@@H](N)CCN [Example 3, (2S)-3-{4-[2-Amino-6-({[2-(4-chlorophenyl)-1,3-oxazol-4-yl]methyl}sulfanyl)-3,5-dicyanopyridin-4-yl]phenoxy}propane-1,2-diyl (2S,2′S)-bis(2-{[(2S)-2,4-diaminobutanoyl]amino}propanoate)tetrahydrochloride]",0.59,,,,,,
"C[C@H](NC(=O)[C@@H](N)CCCN)C(=O)OC[C@H](COc1ccc(-c2c(C#N)c(N)nc(SCc3coc(-c4ccc(Cl)cc4)n3)c2C#N)cc1)OC(=O)[C@H](C)NC(=O)[C@@H](N)CCCN [Example 4, (2S)-3-{4-[2-Amino-6-({[2-(4-chlorophenyl)-1,3-oxazol-4-yl]methyl}sulfanyl)-3,5-dicyanopyridin-4-yl]phenoxy}propane-1,2-diyl (2S,2′S)-bis(2-{[(2S)-2,5-diaminopentanoyl]amino}propanoate)tetrahydrochloride]",0.86,,,,,,
"C[C@H](NC(=O)C[C@H](N)C(=O)O)C(=O)OC[C@H](COc1ccc(-c2c(C#N)c(N)nc(SCc3coc(-c4ccc(Cl)cc4)n3)c2C#N)cc1)OC(=O)[C@H](C)NC(=O)C[C@H](N)C(=O)O [Example 14, (2S,6S,9S,13S,17S)-2,17-Diamino-9-({4-[2-amino-6-({[2-(4-chlorophenyl)-1,3-oxazol-4-yl]methyl}sulfanyl)-3,5-dicyanopyridin-4-yl]phenoxy}methyl)-6,13-dimethyl-4,7,12,15-tetraoxo-8,11-dioxa-5,14-diazaoctadecane-1,18-dioic acid bis(trifluoroacetic acid) salt]",,96,95,100,91,,
"CC(C)[C@H](N)C(=O)N[C@@H](C)C(=O)OC[C@H](COc1ccc(-c2c(C#N)c(N)nc(SCc3coc(-c4ccc(Cl)cc4)n3)c2C#N)cc1)OC(=O)[C@H](C)NC(=O)[C@@H](N)C(C)C [Example 26, (2S)-3-{4-[2-Amino-6-({[2-(4-chlorophenyl)-1,3-oxazol-4-yl]methyl}sulfanyl)-3,5-dicyanopyridin-4-yl]phenoxy}propane-1,2-diyl (2S,2′S)-bis(2-{[(2S)-2-amino-3-methylbutanoyl]amino}propanoate)dihydrochloride]",,100,99,84,34,97,92
"CC(C)[C@H](NC(=O)[C@H](C)N)C(=O)OC[C@H](COc1ccc(-c2c(C#N)c(N)nc(SCc3coc(-c4ccc(Cl)cc4)n3)c2C#N)cc1)OC(=O)[C@@H](NC(=O)[C@H](C)N)C(C)C [Example 28, (2S)-3-{4-[2-Amino-6-({[2-(4-chlorophenyl)-1,3-oxazol-4-yl]methyl}sulfanyl)-3,5-dicyanopyridin-4-yl]phenoxy}propane-1,2-diyl(2S,2′S)-bis(2-{[(2S)-2-aminopropanoyl]amino}-3-methylbutanoate)dihydrochloride]",,100,99,99,88,,
"C[C@H](N)C(=O)NCCC(=O)OC[C@H](COc1ccc(-c2c(C#N)c(N)nc(SCc3coc(-c4ccc(Cl)cc4)n3)c2C#N)cc1)OC(=O)CCNC(=O)[C@H](C)N [Example 31, (2S)-3-{4-[2-Amino-6-({[2-(4-chlorophenyl)-1,3-oxazol-4-yl]methyl}sulfanyl)-3,5-dicyanopyridin-4-yl]phenoxy}propane-1,2-diyl bis(3-{[(2S)-2-aminopropanoyl)amino}propanoate)dihydrochloride]",0.22,,,,,,
"C[C@H](NC(=O)[C@@H](N)CCCCN)C(=O)OC[C@@H](COc1ccc(-c2c(C#N)c(N)nc(SCc3coc(-c4ccc(Cl)cc4)n3)c2C#N)cc1)OC(=O)[C@H](C)NC(=O)[C@@H](N)CCCCN [Example 34, (2R)-3-{4-[2-Amino-6-({[2-(4-chlorophenyl)-1,3-oxazol-4-yl]methyl}sulfanyl)-3,5-dicyanopyridin-4-yl]phenoxy}propane-1,2-diyl(2S,2′S)-bis(2-{[(2S)-2,6-diaminohexanoyl]amino}propanoate)tetrahydrochloride]",,100,99,0,0,,
"C[C@H](NC(=O)[C@@H](N)CCCCN)C(=O)OC[C@H](COc1ccc(-c2c(C#N)c(N)nc(SCc3coc(-c4ccc(Cl)cc4)n3)c2C#N)cc1)OC(=O)[C@H](C)NC(=O)[C@@H](N)CCCCN [Example 35, (2S)-3-{4-[2-Amino-6-({[2-(4-chlorophenyl)-1,3-oxazol-4-yl]methyl}sulfanyl)-3,5-dicyanopyridin-4-yl]phenoxy}propane-1,2-diyl(2S,2′S)-bis(2-{[(2S)-2,6-diaminohexanoyl)amino}propanoate)tetrahydrochloride]",0.61,98,94,2,0,,
"C[C@@H](O)[C@H](NC(=O)CN)C(=O)OC[C@H](COc1ccc(-c2c(C#N)c(N)nc(SCc3coc(-c4ccc(Cl)cc4)n3)c2C#N)cc1)OC(=O)[C@@H](NC(=O)CN)[C@@H](C)O [Example 36, (2S)-3-{4-[2-Amino-6-({[2-(4-chlorophenyl)-1,3-oxazol-4-yl]methyl}sulfanyl)-3,5-dicyanopyridin-4-yl]phenoxy}propane-1,2-diyl (2S,3R,2′S,3′R)-bis{2-[(aminoacetyl)amino]-3-hydroxybutanoate}bis(trifluoroacetic acid) salt]",0.7,,,,,,
"C[C@H](N)C(=O)N[C@H](C(=O)OC[C@H](COc1ccc(-c2c(C#N)c(N)nc(SCc3coc(-c4ccc(Cl)cc4)n3)c2C#N)cc1)OC(=O)[C@@H](NC(=O)[C@H](C)N)[C@@H](C)O)[C@@H](C)O [Example 38, (2S)-3-{4-[2-Amino-6-({[2-(4-chlorophenyl)-1,3-oxazol-4-yl]methyl}sulfanyl)-3,5-dicyanopyridin-4-yl]phenoxy}propane-1,2-diyl (2S,3R,2′S,3′R)-bis(2-{[(2S)-2-aminopropanoyl]amino}-3-hydroxybutanoate)bis(trifluoroacetic acid) salt]",0.75,,,,,,
"C[C@@H](O)[C@H](N)C(=O)NCCC(=O)OC[C@H](COc1ccc(-c2c(C#N)c(N)nc(SCc3coc(-c4ccc(Cl)cc4)n3)c2C#N)cc1)OC(=O)CCNC(=O)[C@@H](N)[C@@H](C)O [Example 39, (2S)-3-{4-[2-Amino-6-({[2-(4-chlorophenyl)-1,3-oxazol-4-yl]methyl}sulfanyl)-3,5-dicyanopyridin-4-yl]phenoxy}propane-1,2-diyl bis(3-{[(2S,3R)-2-amino-3-hydroxybutanoyl]amino}propanoate)bis(trifluoroacetic acid) salt]",0.49,,,,,,

# Reference: patent US8741834B2, “Dipeptoid prodrugs and the use thereof” (Bayer Intellectual Property GmbH, priority 2008, dated 2014)
